Measurements taken from US20260337156A1, “SOLUBILIZING COMPOUNDS” (Vivesto AB, priority 2022, published 2026).

Assay: particle size and polydispersity index of drug micelles over time (ZetaSizer)
Format: physicochemical
Settings: for change of particle size and polydispersity index over time: 0-24 h
Method: Micellar size was measured using a ZetaSizer from Malvern Panalytical.
(§1) A stock solution of docetaxel in methanol was mixed with a stock solution of compound 1 in a round bottom flask. The mixture was evaporated to dryness in a rotary evaporator. Final drying was performed in a desiccator to remove residual solvent. Hydration of the dried film was performed by adding water for injection (1.0 mL) to a concentration of 1 mg/mL of docetaxel. The resulting solution was filtered through a 0.22 μm sterile filter and further diluted with 0.9% sodium chloride solution to 0.5 mg/mL of docetaxel. […]
(§2) A stock solution of cyclosporin in methanol was mixed with a stock solution of compound 1 in a round bottom flask. The mixture was evaporated to dryness in a rotary evaporator. Final drying was performed in a desiccator to remove residual solvent. Hydration of the dried film was performed by adding water for injection (1.0 mL) to a concentration of 1 mg/mL of cyclosporin. The resulting solution was filtered through a 0.22 μm sterile filter and further diluted with 0.9% sodium chloride solution to 0.5 mg/mL of cyclosporin. The final weight ratio of cyclosporin to micelle forming agent was 1:3.
(§3) A stock solution of docetaxel in methanol was mixed with a stock solution of compound 3 in a round bottom flask. The mixture was evaporated to dryness in a rotary evaporator. Final drying was performed in a desiccator to remove residual solvent. Hydration of the dried film was performed by adding water for injection (1.0 mL) to a concentration of 1 mg/mL of docetaxel. The resulting solution was filtered through a 0.22 μm sterile filter and further diluted with 0.9% sodium chloride solution to 0.5 mg/mL of Docetaxel. The final weight ratio of docetaxel to micelle forming agent was 1:3.
as §2, with “compound 3” for “compound 1”
as §1, with “compound 4” for “compound 1”
as §3, with “compound 5” for “compound 3”, “of docetaxel.” for “of Docetaxel.”
A stock solution of cabazitaxel in methanol was mixed with a stock solution of compound 5 in a round bottom flask. The mixture was evaporated to dryness in a rotary evaporator. Final drying was performed in a desiccator to remove residual solvent. Hydration of the dried film was performed by adding water for injection (1.0 mL) to a concentration of 1 mg/mL of cabazitaxel. […]

[1] = docetaxel:compound 1:3, docetaxel 0.5 mg/mL
[2] = docetaxel:compound 1:3, docetaxel 0.5 mg/mL, time 0 h
[3] = docetaxel:compound 1:3, docetaxel 0.5 mg/mL, time 1 h
[4] = docetaxel:compound 1:3, docetaxel 0.5 mg/mL, time 2 h
[5] = docetaxel:compound 1:3, docetaxel 0.5 mg/mL, time 4 h
[6] = docetaxel:compound 1:3, docetaxel 0.5 mg/mL, time 6 h
[7] = docetaxel:compound 1:3, docetaxel 0.5 mg/mL, time 24 h
[8] = docetaxel:compound 1:5, docetaxel 0.5 mg/mL, time 0 h
[9] = docetaxel:compound 1:5, docetaxel 0.5 mg/mL, time 1 h
[10] = docetaxel:compound 1:5, docetaxel 0.5 mg/mL, time 2 h
[11] = docetaxel:compound 1:5, docetaxel 0.5 mg/mL, time 4 h
[12] = docetaxel:compound 1:5, docetaxel 0.5 mg/mL, time 6 h
[13] = docetaxel:compound 1:5, docetaxel 0.5 mg/mL, time 24 h
[14] = cabazitaxel:compound 1:3, cabazitaxel 0.5 mg/mL, time 0 h
[15] = cabazitaxel:compound 1:3, cabazitaxel 0.5 mg/mL, time 1 h
[16] = cabazitaxel:compound 1:3, cabazitaxel 0.5 mg/mL, time 2 h
[17] = cabazitaxel:compound 1:3, cabazitaxel 0.5 mg/mL, time 4 h
[18] = cabazitaxel:compound 1:3, cabazitaxel 0.5 mg/mL, time 6 h
[19] = cabazitaxel:compound 1:3, cabazitaxel 0.5 mg/mL, time 24 h

Particle size [2]	Polydispersity index [2]	Particle size [3]	Polydispersity index [3]	Particle size [4]	Polydispersity index [4]	Particle size [5]	Polydispersity index [5]	Particle size [6]	Polydispersity index [6]	Particle size [7]	Polydispersity index [7]	SMILES	change of particle size and polydispersity index over time [1]	other results
55.38 nm	0.20	70.34 nm	0.15	75.90 nm	0.13	83.10 nm	0.11	87.94 nm	0.12	105.0 nm	0.16	COc1cc(C)c(/C=C/C(C)=C/C=C/C(C)=C/C(=O)N2CCC(CCS(=O)(=O)[O-])CC2)c(C)c1C.[Na+] [Compound 8]	Increase in the particle size and small variations the polydispersity index over time were noted	
												COc1cc(C)c(/C=C/C(C)=C/C=C/C(C)=C/C(=O)N(CCO)Cc2ccc(N)cc2S(=O)(=O)[O-])c(C)c1C.[Na+] [Compound 10]		change of particle size and polydispersity index over time (docetaxel:compound 1:5, docetaxel 0.5 mg/mL): Increase in the particle size and minor decrease the polydispersity index over time were noted; Particle size [8]: 52.29 nm; Polydispersity index [8]: 0.16; Particle size [9]: 62.51 nm; Polydispersity index [9]: 0.13; Particle size [10]: 70.07 nm; Polydispersity index [10]: 0.12; Particle size [11]: 78.98 nm; Polydispersity index [11]: 0.12; Particle size [12]: 85.10 nm; Polydispersity index [12]: 0.10; Particle size [13]: 107.4 nm; Polydispersity index [13]: 0.10
59.40 nm	0.17	66.24 nm	0.16	75.40 nm	0.14	82.19 nm	0.13	87.95 nm	0.13	105.7 nm	0.14	COc1cc(C)c(/C=C/C(C)=C/C=C/C(C)=C/C(=O)N(CCS(=O)(=O)[O-])CC(N)=O)c(C)c1C.[Na+] [Compound 5]	An increase in the particle size and very small variations of the polydispersity index over time were noted	change of particle size and polydispersity index over time (cabazitaxel:compound 1:3, cabazitaxel 0.5 mg/mL): Small variations in the particle size and the polydispersity index over time were noted; Particle size [14]: 93.83 nm; Polydispersity index [14]: 0.19; Particle size [15]: 98.08 nm; Polydispersity index [15]: 0.20; Particle size [16]: 102.2 nm; Polydispersity index [16]: 0.21; Particle size [17]: 106.6 nm; Polydispersity index [17]: 0.20; Particle size [18]: 108.8 nm; Polydispersity index [18]: 0.21; Particle size [19]: 83.42 nm; Polydispersity index [19]: 0.39
61.37 nm	0.22	61.27 nm	0.28	64.21 nm	0.28	67.34 nm	0.28	69.84 nm	0.28	66.18 nm	0.38	COc1cc(C)c(/C=C/C(C)=C/C=C/C(C)=C/C(=O)N2CCN(c3ccc(S(=O)(=O)[O-])cc3)CC2)c(C)c1C.[Na+] [Compound 6]	Small variations in the particle size and the polydispersity index over time were noted	
100.8 nm	0.23	97.60 nm	0.24	97.60 nm	0.24	96.90 nm	0.25	99.12 nm	0.25	96.76 nm	0.26	COc1cc(C)c(/C=C/C(C)=C/C=C/C(C)=C/C(=O)N(C)[C@H]2CC[C@H](CS(=O)(=O)[O-])CC2)c(C)c1C.[Na+] [Compound 7]	Small variations in the particle size and the polydispersity index over time were noted	
89.91 nm	0.20	97.93 nm	0.20	103.8 nm	0.20	113.0 nm	0.17	118.6 nm	0.17	122.0 nm	0.22	COc1cc(C)c(/C=C/C(C)=C/C=C/C(C)=C/C(=O)N2CCN(C(=O)c3ccc(S(=O)(=O)[O-])cc3)CC2)c(C)c1C.[K+] [Compound 9]	Increase in the particle size and small variations the polydispersity index over time were noted	
